Conditions: in isopropanol

C=NCC#N
Conditions	solubility (mole fraction)
278.15 K	0.00069
283.15 K	0.000826
288.15 K	0.00106
293.15 K	0.00129
298.15 K	0.00153
303.15 K	0.00188
308.15 K	0.00229
313.15 K	0.00279
318.15 K	0.00338
323.15 K	0.00411
